Assay results reported in patent US9701689B2, “Substituted pyridines and pyridazines as CCR10 receptor inhibitors” (KYOWA HAKKO KIRIN CO., LTD., priority 2012, dated 2017).

Each compound was assayed against T1, human CCR10 (Homo sapiens, UniProt P46092) (assay: CCR10 antagonistic effect: calcium assay of human CCR10 (CTACK-induced increase of intracellular calcium in hCCR10G16 cells)). Conditions: at a concentration of not more than 1000 nmol/L; human CCR10-expressing hCCR10G16 cells, 300 nmol/L CTACK added; read-out: inhibition of increase in the calcium ion concentration.
T1 construct: expressed in transfected cells; host or cells: KJMGER8 cells (Namalwa cell-derived line), beta-estradiol-induced; hCCR10G16 cells
T1 sequence (P46092 1-362): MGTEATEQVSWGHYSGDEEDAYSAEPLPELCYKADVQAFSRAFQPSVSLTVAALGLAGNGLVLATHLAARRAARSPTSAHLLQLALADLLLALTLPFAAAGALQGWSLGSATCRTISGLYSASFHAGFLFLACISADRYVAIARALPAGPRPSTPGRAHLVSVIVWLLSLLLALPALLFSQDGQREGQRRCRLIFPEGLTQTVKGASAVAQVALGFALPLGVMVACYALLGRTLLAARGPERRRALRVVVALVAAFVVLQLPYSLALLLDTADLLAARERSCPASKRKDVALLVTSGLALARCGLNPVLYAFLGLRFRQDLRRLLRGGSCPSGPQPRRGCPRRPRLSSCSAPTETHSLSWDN
Format: cell-based
How it was run: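 KJMGER8-derived hCCR10G16 cells (CCR10 plus Gα16, induced 24 h with 10 nmol/L β-estradiol), Fluo-3 loaded, preincubated with compound 30 min at 37 °C. Stimulated with CTACK (300 nmol/L solution before addition); calcium read ~5 min by FDSS, max−min fluorescence; % inhibition vs control.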

SMILES | inhibition at up to 1 µM [%]
Cc1cc(F)ccc1Nc1cc(S(=O)(=O)NC2CCNC2=O)ncc1C(=O)N1CCC(c2ccc(F)cc2)CC1 (stereo not drawn) [Compound 142, 4-(4-fluoro-2-methylphenylamino)-5-[4-(4-fluorophenyl)piperidine-1-carbonyl]-N-(2-oxopyrrolidin-3-yl)pyridine-2-sulfonamide] | ≥ 50
Cc1cc(F)ccc1Nc1cc(S(=O)(=O)N2CCOC2=O)ncc1C(=O)N1CCC(c2ccc(F)cc2)CC1 [Compound 143, 3-{4-(4-fluoro-2-methylphenylamino)-5-[4-(4-fluorophenyl)piperidine-1-carbonyl]pyridin-2-ylsulfonyl}oxazolidin-2-one] | ≥ 50
Cc1cc(F)ccc1Nc1cc(S(=O)(=O)N2CCNC2=O)ncc1C(=O)N1CCC(c2ccc(F)cc2)CC1 [Compound 144, 1-{4-(4-fluoro-2-methylphenylamino)-5-[4-(4-fluorophenyl)piperidine-1-carbonyl]pyridin-2-ylsulfonyl}imidazolidin-2-one] | ≥ 50
Cc1cc(F)ccc1Nc1cc(S(=O)(=O)Nc2ncccn2)ncc1C(=O)N1CCC(c2ccc(F)cc2)CC1 [Compound 145, 4-(4-fluoro-2-methylphenylamino)-5-[4-(4-fluorophenyl)piperidine-1-carbonyl]-N-(pyrimidin-2-yl)pyridine-2-sulfonamide] | ≥ 50
Cc1cc(F)ccc1Nc1cc(S(=O)(=O)Nc2ccccn2)ncc1C(=O)N1CCC(c2ccc(F)cc2)CC1 [Compound 146, 4-(4-fluoro-2-methylphenylamino)-5-[4-(4-fluorophenyl)piperidine-1-carbonyl]-N-(pyridin-2-yl)pyridine-2-sulfonamide] | ≥ 50
Cc1cc(F)ccc1Nc1cc(S(=O)(=O)Nc2ncc(Br)cn2)ncc1C(=O)N1CCC(c2ccc(F)cc2)CC1 [Compound 147, N-(5-bromopyrimidin-2-yl)-4-(4-fluoro-2-methylphenylamino)-5-[4-(4-fluorophenyl)piperidine-1-carbonyl]pyridine-2-sulfonamide] | ≥ 50
Cc1cc(F)ccc1Nc1cc(S(=O)(=O)Nc2nccs2)ncc1C(=O)N1CCC(c2ccc(F)cc2)CC1 [Compound 148, 4-(4-fluoro-2-methylphenylamino)-5-[4-(4-fluorophenyl)piperidine-1-carbonyl]-N-(thiazol-2-yl)pyridine-2-sulfonamide] | ≥ 50
Cc1cc(F)ccc1Nc1cc(S(=O)(=O)Nc2nccn2C)ncc1C(=O)N1CCC(c2ccc(F)cc2)CC1 [Compound 149, 4-(4-fluoro-2-methylphenylamino)-5-[4-(4-fluorophenyl)piperidine-1-carbonyl]-N-(1-methyl-1H-imidazol-2-yl)pyridine-2-sulfonamide] | ≥ 50
CSc1nccc(NS(=O)(=O)c2cc(Nc3ccc(F)cc3C)c(C(=O)N3CCC(c4ccc(F)cc4)CC3)cn2)n1 [Compound 150, 4-(4-fluoro-2-methylphenylamino)-5-[4-(4-fluorophenyl)piperidine-1-carbonyl]-N-[2-(methylthio)pyrimidin-4-yl]pyridine-2-sulfonamide] | ≥ 50
Cc1cc(F)ccc1Nc1cc(S(=O)(=O)Nc2c(C)noc2C)ncc1C(=O)N1CCC(c2ccc(F)cc2)CC1 [Compound 151, N-(3,5-dimethylisoxazol-4-yl)-4-(4-fluoro-2-methylphenylamino)-5-[4-(4-fluorophenyl)piperidine-1-carbonyl]pyridine-2-sulfonamide] | ≥ 50
Cc1cc(F)ccc1Nc1cc(S(=O)(=O)Nc2c(C)nn(C)c2C)ncc1C(=O)N1CCC(c2ccc(F)cc2)CC1 [Compound 152, 4-(4-fluoro-2-methylphenylamino)-5-[4-(4-fluorophenyl)piperidine-1-carbonyl]-N-(1,3,5-trimethyl-1H-pyrazol-4-yl)pyridine-2-sulfonamide] | ≥ 50
Cc1cc(F)ccc1Nc1cc(S(=O)(=O)Nc2ccn(C)n2)ncc1C(=O)N1CCC(c2ccc(F)cc2)CC1 [Compound 153, 4-(4-fluoro-2-methylphenylamino)-5-[4-(4-fluorophenyl)piperidine-1-carbonyl]-N-(1-methyl-1H-pyrazol-3-yl)pyridine-2-sulfonamide] | ≥ 50
Cc1cc(F)ccc1Nc1cc(S(=O)(=O)Nc2cscn2)ncc1C(=O)N1CCC(c2ccc(F)cc2)CC1 [Compound 154, 4-(4-fluoro-2-methylphenylamino)-5-[4-(4-fluorophenyl)piperidine-1-carbonyl]-N-(thiazol-4-yl)pyridine-2-sulfonamide] | ≥ 50
Cc1cc(F)ccc1Nc1cc(S(=O)(=O)Nc2cncs2)ncc1C(=O)N1CCC(c2ccc(F)cc2)CC1 [Compound 155, 4-(4-fluoro-2-methylphenylamino)-5-[4-(4-fluorophenyl)piperidine-1-carbonyl]-N-(thiazol-5-yl)pyridine-2-sulfonamide] | ≥ 50

The next lines start with the values.

inhibition at up to 1 µM [%] | SMILES
≥ 50 | Cc1cc(F)ccc1Nc1cc(S(=O)(=O)Nc2cncnc2)ncc1C(=O)N1CCC(c2ccc(F)cc2)CC1 [Compound 156, 4-(4-fluoro-2-methylphenylamino)-5-[4-(4-fluorophenyl)piperidine-1-carbonyl]-N-(pyrimidin-5-yl)pyridine-2-sulfonamide]
≥ 50 | Cc1cc(NS(=O)(=O)c2cc(Nc3ccc(F)cc3C)c(C(=O)N3CCC(c4ccc(F)cc4)CC3)cn2)no1 [Compound 157, 4-(4-fluoro-2-methylphenylamino)-5-[4-(4-fluorophenyl)piperidine-1-carbonyl]-N-(5-methylisoxazol-3-yl)pyridine-2-sulfonamide]
≥ 50 | Cc1cc(F)ccc1Nc1cc(S(=O)(=O)Nc2onc(C)c2C)ncc1C(=O)N1CCC(c2ccc(F)cc2)CC1 [Compound 158, N-(3,4-dimethylisoxazol-5-yl)-4-(4-fluoro-2-methylphenylamino)-5-[4-(4-fluorophenyl)piperidine-1-carbonyl]pyridine-2-sulfonamide]
≥ 50 | Cc1cc(F)ccc1Nc1cc(S(=O)(=O)Nc2cc(C(C)(C)C)on2)ncc1C(=O)N1CCC(c2ccc(F)cc2)CC1 [Compound 159, N-(5-tert-butylisoxazol-3-yl)-4-(4-fluoro-2-methylphenylamino)-5-[4-(4-fluorophenyl)piperidine-1-carbonyl]pyridine-2-sulfonamide]
≥ 50 | Cc1cc(F)ccc1Nc1cc(S(=O)(=O)NC(=O)C2CC2)ncc1C(=O)N1CCC(c2ccc(F)cc2)CC1 [Compound 160, N-{4-(4-fluoro-2-methylphenylamino)-5-[4-(4-fluorophenyl)piperidine-1-carbonyl]pyridin-2-ylsulfonyl}cyclopropanecarboxamide]
≥ 50 | CCNC(=O)NS(=O)(=O)c1cc(Nc2cc(C)ccc2Cl)c(C(=O)N2CCC(c3ccc(F)cc3)CC2)cn1 [Compound 161, 4-(2-chloro-5-methylphenylamino)-N-(ethylcarbamoyl)-5-[4-(4-fluorophenyl)piperidine-1-carbonyl]pyridine-2-sulfonamide]
≥ 50 | CCCNC(=O)NS(=O)(=O)c1cc(Nc2cc(C)ccc2Cl)c(C(=O)N2CCC(c3ccc(F)cc3)CC2)cn1 [Compound 162, 4-(2-chloro-5-methylphenylamino)-5-[4-(4-fluorophenyl)piperidine-1-carbonyl]-N-(propylcarbamoyl)pyridine-2-sulfonamide]
≥ 50 | CCNC(=O)NS(=O)(=O)c1cc(NCc2ccccc2)c(C(=O)N2CCC(c3ccc(F)cc3)CC2)cn1 [Compound 163, 4-(benzylamino)-N-(ethylcarbamoyl)-5-[4-(4-fluorophenyl)piperidine-1-carbonyl]pyridine-2-sulfonamide]
≥ 50 | CCNC(=O)NS(=O)(=O)c1cc(Nc2cc(C)c(Cl)cc2Cl)c(C(=O)N2CCC(c3ccc(F)cc3)CC2)cn1 [Compound 164, 4-(2,4-dichloro-5-methylphenylamino)-N-(ethylcarbamoyl)-5-[4-(4-fluorophenyl)piperidine-1-carbonyl]pyridine-2-sulfonamide]
≥ 50 | CCCNC(=O)NS(=O)(=O)c1cc(Nc2cc(C)c(Cl)cc2Cl)c(C(=O)N2CCC(c3ccc(F)cc3)CC2)cn1 [Compound 165, 4-(2,4-dichloro-5-methylphenylamino)-5-[4-(4-fluorophenyl)piperidine-1-carbonyl]-N-(propylcarbamoyl)pyridine-2-sulfonamide]
≥ 50 | CCNC(=O)NS(=O)(=O)c1cc(Nc2cc(C)c(Cl)cc2C)c(C(=O)N2CCC(c3ccc(F)cc3)CC2)cn1 [Compound 166, 4-(4-chloro-2,5-dimethylphenylamino)-N-(ethylcarbamoyl)-5-[4-(4-fluorophenyl)piperidine-1-carbonyl]pyridine-2-sulfonamide]
≥ 50 | CCCNC(=O)NS(=O)(=O)c1cc(Nc2cc(C)c(Cl)cc2C)c(C(=O)N2CCC(c3ccc(F)cc3)CC2)cn1 [Compound 167, 4-(4-chloro-2,5-dimethylphenylamino)-5-[4-(4-fluorophenyl)piperidine-1-carbonyl]-N-(propylcarbamoyl)pyridine-2-sulfonamide]
≥ 50 | CCCNC(=O)NS(=O)(=O)c1cc(Nc2ccc(F)cc2C)c(C(=O)N2CCC(c3ccc(F)cc3)CC2)cn1 [Compound 168, 4-(4-fluoro-2-methylphenylamino)-5-[4-(4-fluorophenyl)piperidine-1-carbonyl]-N-(propylcarbamoyl)pyridine-2-sulfonamide]
